Our source for the IC50 values is patent EP1077942B1, “CARBOXY SUBSTITUTED CARBOXAMIDE DERIVATIVES AS TACHYKININ RECEPTOR ANTAGONISTS” (Aventis Pharmaceuticals Inc., priority 1998, dated 1999).

pIC50: −log10 of the molar value. Where a name gives a salt, the structure may show the parent alone.

One test concerns the target T1, NK1 receptor (Cavia porcellus, UniProt P30547).
T1 construct: evaluated in guinea pig lungs (Keystone Biologicals, Cleveland, OH); tissue Keystone Biologicals, Cleveland, OH; host or cells: guinea pig lung membrane homogenate
The test can be described thus: Antagonism of iodinated tachykinin binding to NK1 receptor (Example A). Conditions: guinea pig lungs membranes; 125I-Bolton Hunter Lys-3 labeled substance P 0.1 nM; mean of several experiments. As for the experimental part:
(§1) Antagonism of iodinated tachykinin binding to NK1 and NK2 receptors by putative antagonists
(§2) One skilled in the art can determine the NK1 receptor and NK2 receptor affinity in vitro as follows. The NK1 receptor affinity of tachykinin antagonists is evaluated in guinea pig lungs (Keystone Biologicals, Cleveland, OH) and affinity for the NK2 receptor is evaluated in HSKR-1 cells (which are mouse 3T3 fibroblasts expressing the human jejunal NK2 receptor). Tissues or cells are homogenized with a Polytron in 15 volumes of 50 mM Tris-HCl buffer (pH 7.4, 4°C) and centrifuged. The pellet is resuspended in Tris-HCl buffer and is centrifuged; the pellet is washed twice by resuspension. The final pellet is resuspended at a concentration of 40 mg/ml for tissues and 20 mg/ml for cells in incubation buffer and remains at room temperature for at least 15 min prior to use. […] Filter bound radioactivity is quantitated in a gamma counter. Nonspecific binding is defined as binding in the presence of 1 µM substance P or neurokinin A. Specific binding is calculated by subtracting nonspecific binding from total binding. Competition of iodinated SP or NKA binding by test compounds or standards is expressed as a percentage of this maximum binding. […]

Test [1] addresses T2, human jejunal NK2 receptor (Homo sapiens, UniProt P21452).
T2 construct: expressed in transfected cells; host or cells: HSKR-1 cells (mouse 3T3 fibroblasts)
T2 sequence (P21452 1-398): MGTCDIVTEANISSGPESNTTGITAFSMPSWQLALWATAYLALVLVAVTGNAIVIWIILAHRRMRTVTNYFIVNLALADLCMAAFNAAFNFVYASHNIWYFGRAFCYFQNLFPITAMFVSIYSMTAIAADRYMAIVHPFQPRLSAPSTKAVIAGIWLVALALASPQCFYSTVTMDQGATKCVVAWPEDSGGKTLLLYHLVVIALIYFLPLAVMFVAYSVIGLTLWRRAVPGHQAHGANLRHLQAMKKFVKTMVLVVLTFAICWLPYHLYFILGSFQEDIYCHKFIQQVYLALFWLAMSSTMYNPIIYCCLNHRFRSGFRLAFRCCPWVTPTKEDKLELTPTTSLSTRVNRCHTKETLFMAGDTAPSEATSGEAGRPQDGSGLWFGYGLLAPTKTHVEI
The test can be described thus: Antagonism of iodinated tachykinin binding to NK2 receptor (Example A). Conditions: HSKR-1 cells (mouse 3T3 fibroblasts expressing the human jejunal NK2 receptor); 125 iodohistidyl-1-neurokinin A 0.1 nM; mean of several experiments. How it is done: as §1, §2

T1 sequence (P30547 whole entry): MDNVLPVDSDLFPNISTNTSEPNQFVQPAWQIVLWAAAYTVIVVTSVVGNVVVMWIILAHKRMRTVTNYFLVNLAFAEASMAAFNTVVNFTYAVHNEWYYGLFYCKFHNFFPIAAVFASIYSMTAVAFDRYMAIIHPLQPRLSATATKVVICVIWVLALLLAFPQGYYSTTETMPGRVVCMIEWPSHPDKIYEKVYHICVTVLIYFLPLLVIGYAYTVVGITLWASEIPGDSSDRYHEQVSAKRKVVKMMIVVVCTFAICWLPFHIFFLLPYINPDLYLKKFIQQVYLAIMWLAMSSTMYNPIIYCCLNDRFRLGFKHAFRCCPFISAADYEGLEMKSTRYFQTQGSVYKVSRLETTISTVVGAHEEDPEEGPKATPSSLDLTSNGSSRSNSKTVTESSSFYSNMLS

As for `CCOC(=O)CN1CCN(C(=O)C2(c3ccccc3)CCN(CC[C@H](CN(C)C(=O)c3cc(-n4cnnn4)ccc3OC)c3ccc(Cl)c(Cl)c3)CC2)CC1` [Example 1.2, (S)-N-methyl-N-(4-(4-phenyl-4-((4-carboethoxymethylpiperazin-1-yl)carboxamido)piperidin-1-yl) 2-(3,4-dichlorophenyl)butyl)-2-methoxy-5-(1H-tetrazol-1-yl)benzamide hydrochloric acid salt], the results for the pIC50 (on NK1 receptor; in test [1]) were 7.64 and 6.75, respectively.

By pIC50 is commonly meant −log10 of the IC50, conventionally taken in molar units. The low end stands for a high IC50, the high end for a low IC50.
